The source of these data is patent US4153709A, “N-Heterocyclic ureas as immune regulants” (Eli Lilly and Company, priority 1977, dated 1979).

Like-named read-outs stand apart in the source and are kept apart here.

Data set [1] deals with twelve histidine-auxotrophs of Salmonella typhimurium. Format: in vivo, Salmonella typhimurium in Cox white Swiss male mice. Particulars: 300 mg/kg. How it is done: (§1) The in vivo and in vitro mutagenic potential of 1-(6-methoxy-2-benzothiazolyl)-3-phenyl-urea was negative when tested versus the twelve histidine-auxotrophs of Salmonella typhimurium at a level of 300 mg/kg in vivo and 750 mcg/ml in vitro. Imuran and Cytoxan, compounds with immunosuppressive activity; Streptozotacin, N-nitrosodimethylamine (DMNA) and trimethylenemelamine (TEM) known mutagens and/or carcinogens; and Acetylsalicylic Acid (ASA) were used as control compounds.
A. Drug Administration: Appropriate solvents were used where applicable with a solvent control run within each test. The compounds to be tested were given either subcutaneously along the backbone of the mouse (0.1 ml.) or by oral gavage (0.5 ml.) B. Inoculation Technique: The histidine- cultures G46, C209, C3076, and D3056 used as the TA15 series have lost pathogenicity to mice because of absence or decrease in the lipopolysaccharide coat. The organisms were grown to stationary phase, then diluted with normal saline to give an inoculum near 1×10^8 organisms per milliliter. The abdominal area of the drug-treated mouse was swabbed with alcohol and two milliliters of bacterial culture were injected into the abdominal cavity of the mouse. The mice were returned to their cages for 3-4 hours.
C. Autopsy and Recovery: The mice were sacrificed individually by cervical dislocation prior to each autopsy. […]

Data set [2] relates to Salmonella typhimurium G46 missense histidine-auxotroph. The data set is described as follows: Host mediated assay (in vivo mutagenicity), G46 indicator (Table 22). Details: species or system Salmonella typhimurium in Cox white Swiss male mice. Particulars: s.c. The protocol:
Cox white Swiss male mice 25-30 grams were used in all in vivo tests.
A. Drug Administration: Appropriate solvents were used where applicable with a solvent control run within each test. […] The organisms were grown to stationary phase, then diluted with normal saline to give an inoculum near 1×10^8 organisms per milliliter. The abdominal area of the drug-treated mouse was swabbed with alcohol and two milliliters of bacterial culture were injected into the abdominal cavity of the mouse. The mice were returned to their cages for 3-4 hours.
C. Autopsy and Recovery: The mice were sacrificed individually by cervical dislocation prior to each autopsy. The abdominal areas were soaked with ethanol. The peritoneum was bared and 2.5 ml. of sterile normal saline was injected into the peritoneal cavity using a sterile (3-ml. plastic syringe with a 20-gauge needle. After insertion, the needle is turned bevel up and the saline was expelled into the cavity; while the needle remains through the peritoneum, keeping the point of the needle in sight pressed against the peritoneal wall, the abdomen of the mouse was massaged to mix contents. The saline wash was removed from the abdominal cavity back into the syringe. The needle was removed and the contents expelled into an appropriately marked tube and iced 4° C.
D. Dilution and Plating: One-ml. samples were plated at 10° dilution on all mice to determine revertants (histidine+).
A one-milliliter sample from the untreated dilutions from control animals is plated 10^-6, 10^-7, and 10^-8 dilutions with excess histidine to determine mutable population (histidine-).

In data set [3] the test system is twelve histidine-auxotrophs of Salmonella typhimurium. The data set is classed as cell-based. The protocol:
as §1
The plates were read as follows:
Compounds found active in the qualitative test were further tested. The culture to be tested was grown to stationary phase in tryptone yeast broth and then diluted to a viable count of about 9×10^7 organisms per milliliter.
Eleven log4 dilutions of the test compound were made covering a range that would allow survival of nonlethal mutants. […] Final drug concentrations were calculated from 4-ml. volumes (3 ml. drug dilution +1 ml. test organism). Two of the "0" drug tubes were immediately plated at 10° dilution in minimal medium and 10^-5, 10^-6, 10^-7 dilutions in medium containing excess histidine (40 mcg/ml.) Spontaneous revertants (histidine+) were detected in the 10° dilution. Mutable population (histidine-) were detected in the 10^-5, 10^-6, and 10^-7 dilutions. […] All minimal media plates were counted. […]

The test system of data set [4] is mouse skin graft rejection (AKR skin on C3H mice). The data set can be described thus: Suppression of rejection of mouse-tail skin grafts (Table 19). Particulars: 50 mg/kg/2 days, POT vehicle, control 19.6 ± 1.3. Format: in vivo, mice (C3H recipients, AKR donors). From the text: Compounds disclosed herein have shown activity in suppressing the rejection of mouse skin grafts. […] Albino tail skin segments (AKR strain) were grafted onto the tails of groups of ten agouti recipient mice (C3H strain). Results achieved with two therapy regimens employing 1-(6-methoxy-2-benzothiazolyl)-3-phenyl urea were as follows:
*Treatment was commenced 3 days prior to grafting and continued every 2nd
**50% polyethylene glycol, 40% corn oil, 10% Tween 80

In data set [5] the test system is antibody to sheep red blood cells. The data set can be described thus: 75 percent reduction of control antibody titer in mice by subcutaneous, percutaneous and oral routes (Table 16). Format: in vivo, male Swiss mice. The conditions noted are these: Mus musculus, Erythrocyte, × 10 daily doses commencing 3 days before antigen i.v. How it is done:
Subcutaneous, percutaneous, and oral activity have been achieved as indicated in Table 16 which follows employing representative compounds from the above entitled application. […] Except as indicated, the tests were performed using groups of five 20-gram male Swiss mice injected with 5×10^7 sheep red blood cells intravenously for each drug level. Ten (daily) administrations of drug were made commencing three days prior to red blood cell injection. On the day following the final treatment (7 days after red blood cell injection) the animals were bled by cardiac puncture, the sera from each five-mouse-group were pooled, and antibody titers of these serum pools and corresponding serum pools from control (untreated) mouse groups were determined. The results are expressed as the minimum drug dose effecting 75 percent reduction of control antibody titer: […]

For the compound `COc1ccc2nc(NC(=O)Nc3ccccc3)sc2c1` [Table 11: phenyl, 6-CH3 O, S, 1-(6-methoxy-2-benzothiazolyl)-3-phenyl urea], in data set [1], the “in vivo mutagenic potential” value was “negative”. Further, the “IN VIVO mutants test/mutants control” value in data set [2] (3 mg/kg) is “.95”; in data set [2] (30 mg/kg) it was “.95”; in data set [2] (300 mg/kg, MT/MC of 3 would indicate mutagenic potential), 1.2; in data set [2] (.3 mg/kg), 1.25. In data set [3] (750 mcg/ml), the “in vitro mutagenic potential” value was “negative”. In addition, the “mutagenicity for point mutations (overall statement)” value in data set [3] (histidine- auxotrophs of Salmonella typhimurium) is “non-mutagenic”. In addition, the “Allograft Survival (Days ± S.E.)” value amounted to 25.2 ± 2.0 Days in data set [4] (oral) and 27.7 ± 1.0 Days in data set [4] (subcutaneous). For the same compound, the minimal effective dose in data set [5] (sc, subcutaneous, read-out: Lowest Dose Producing 75% Immunosuppression, Subcutaneous) was 0.8 to 1.6 mg/kg; in data set [5] (oral, read-out: Lowest Dose Producing 75% Immunosuppression, Oral), 12.5 to 25 mg/kg; in data set [5] (percutaneous, read-out: Lowest Dose Producing 75% Immunosuppression, Percutaneous) it was 12.5 mg/kg.
